Results as given in ChEMBL document CHEMBL6109122 (J Med Chem, 2025).
Calls of active or inactive are those of the source. No cut-off for these calls is given here.

Assays:
[1] = biological target: T1, Protein cereblon/Non-receptor tyrosine-protein kinase TYK2 (Homo sapiens, UniProt P29597+Q96SW2); assay: PROTAC activity at CRBN/TYK2 in human Jurkat cells assessed as induction of degradation of TYK2 at 10 nM measured after 4 hrs by Western blot analysis; type: cell-based
Target sequence in this assay (P29597 whole entry, looked up): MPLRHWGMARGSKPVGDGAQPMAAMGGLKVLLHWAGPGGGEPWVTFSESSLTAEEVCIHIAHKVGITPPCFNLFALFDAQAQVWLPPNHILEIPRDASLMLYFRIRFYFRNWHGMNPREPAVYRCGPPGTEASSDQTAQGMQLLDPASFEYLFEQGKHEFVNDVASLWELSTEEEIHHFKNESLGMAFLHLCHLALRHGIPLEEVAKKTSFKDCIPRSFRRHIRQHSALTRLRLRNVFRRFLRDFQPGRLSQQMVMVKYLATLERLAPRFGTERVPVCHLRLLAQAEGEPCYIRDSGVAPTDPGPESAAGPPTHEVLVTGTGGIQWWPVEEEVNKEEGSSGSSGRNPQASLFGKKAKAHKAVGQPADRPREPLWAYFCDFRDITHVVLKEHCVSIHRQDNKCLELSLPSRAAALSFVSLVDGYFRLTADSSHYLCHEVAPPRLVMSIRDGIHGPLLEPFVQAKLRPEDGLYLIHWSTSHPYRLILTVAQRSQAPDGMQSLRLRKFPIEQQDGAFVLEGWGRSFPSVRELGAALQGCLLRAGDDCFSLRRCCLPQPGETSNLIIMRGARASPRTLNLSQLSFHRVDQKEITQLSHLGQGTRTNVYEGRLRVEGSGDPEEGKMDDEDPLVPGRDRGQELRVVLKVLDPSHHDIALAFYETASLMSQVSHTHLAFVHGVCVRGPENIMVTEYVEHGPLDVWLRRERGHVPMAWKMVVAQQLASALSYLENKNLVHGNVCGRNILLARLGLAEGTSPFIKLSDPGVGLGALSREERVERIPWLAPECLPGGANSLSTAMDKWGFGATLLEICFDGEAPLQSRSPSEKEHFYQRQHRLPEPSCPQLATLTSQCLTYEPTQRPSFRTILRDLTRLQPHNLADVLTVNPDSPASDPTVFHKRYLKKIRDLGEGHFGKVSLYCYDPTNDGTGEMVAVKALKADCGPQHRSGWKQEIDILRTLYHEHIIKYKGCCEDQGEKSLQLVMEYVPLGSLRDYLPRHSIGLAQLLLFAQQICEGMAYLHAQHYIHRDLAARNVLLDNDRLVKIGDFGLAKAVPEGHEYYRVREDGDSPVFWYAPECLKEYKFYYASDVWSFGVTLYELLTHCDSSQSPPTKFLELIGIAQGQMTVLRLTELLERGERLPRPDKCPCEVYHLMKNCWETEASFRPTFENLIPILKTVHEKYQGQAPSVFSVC
Target sequence in this assay (Q96SW2 whole entry, looked up): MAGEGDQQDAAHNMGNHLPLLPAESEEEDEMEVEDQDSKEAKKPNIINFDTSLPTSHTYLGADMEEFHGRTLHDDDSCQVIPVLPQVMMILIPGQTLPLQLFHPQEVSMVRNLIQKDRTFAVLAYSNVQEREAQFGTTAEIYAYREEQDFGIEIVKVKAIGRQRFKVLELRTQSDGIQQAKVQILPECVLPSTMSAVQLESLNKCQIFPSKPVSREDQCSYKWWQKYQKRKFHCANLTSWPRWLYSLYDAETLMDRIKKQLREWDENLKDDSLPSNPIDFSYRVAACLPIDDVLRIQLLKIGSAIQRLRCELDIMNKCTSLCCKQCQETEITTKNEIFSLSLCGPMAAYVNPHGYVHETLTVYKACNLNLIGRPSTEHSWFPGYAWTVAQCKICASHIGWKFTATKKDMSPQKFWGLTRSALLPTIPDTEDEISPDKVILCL

[2] = test system: Mus musculus; assay: Anti-inflammatory activity in imiquimod-induced female BALB/c mouse psoriasis model assessed as reduction in inflammatory infiltration at 5 mg/kg, ip administered daily topically for 6 days by H and E staining based analysis; type: functional, organism-based; conditions: time 6.0 day
[3] = Inhibition of TYK2 dependent STAT3 phosphorylation in IL-12 stimulated human PBMC cells preincubated for 60 mins followed by IL-12 stimulation and measured after 60 mins by FACS assay; type: cell-based
[4] = test system: Mus musculus; assay: Anti-inflammatory activity in imiquimod-induced female BALB/c mouse psoriasis model assessed as reduction in hyperkeratosis at 5 mg/kg, ip administered daily topically for 6 days by H and E staining based analysis; type: functional, organism-based; conditions: time 6.0 day
[5] = organism: Mus musculus; assay: Anti-inflammatory activity in imiquimod-induced female BALB/c mouse psoriasis model assessed as reduction in IL-17 expression in skin by ELISA method; type: functional, organism-based
[6] = Inhibition of IFN-alpha activated TYK2 dependent STAT3 phosphorylation in human Jurkat cells incubated for 10 hrs by Western blot analysis; type: cell-based
[7] = test system: Mus musculus; assay: Anti-inflammatory activity in imiquimod-induced female BALB/c mouse psoriasis model assessed as reduction in IL-23 expression in skin at 15 mg/kg, ip administered daily topically for 6 days by ELISA method; type: functional, organism-based; conditions: time 6.0 day
[8] = Metabolic stability in mouse liver microsomes assessed as intrinsic clearance measured up to 120 mins by LC-MS/MS analysis; type: ADME, Microsome; conditions: read-out: CLH
[9] = biological target: T1, Protein cereblon/Non-receptor tyrosine-protein kinase TYK2; assay: PROTAC activity at CRBN/TYK2 in human Jurkat cells assessed as induction of degradation of TYK2 measured after 10 hrs by Western blot analysis; type: cell-based
Target sequence in this assay (P29597 whole entry): as the sequence (P29597 whole entry, looked up) above
Target sequence in this assay (Q96SW2 whole entry): as the sequence (Q96SW2 whole entry, looked up) above

[10] = test system: Jurkat; assay: Downregulation of JAK3 protein level in human Jurkat cells at 1 to 100 nM measured after 10 hrs by Western blot analysis; type: functional, cell-based; conditions: dose 1-100 nM
[11] = test system: Jurkat; assay: Downregulation of TYK2 protein level in human Jurkat cells at 30 nM measured after 4 hrs by DIA-Based Proteomic analysis; type: functional, cell-based
[12] = organism: Mus musculus; assay: Anti-inflammatory activity in imiquimod-induced female BALB/c mouse psoriasis model assessed as reduction in INF-alpha expression in serum by ELISA method; type: functional, organism-based
[13] = test system: Mus musculus; assay: Anti-inflammatory activity in imiquimod-induced female BALB/c mouse psoriasis model assessed as effect on body weight at 5 mg/kg, ip administered daily topically for 6 days; type: functional, organism-based; conditions: time 6.0 day
[14] = test system: Mus musculus; assay: Anti-inflammatory activity in imiquimod-induced female BALB/c mouse psoriasis model assessed as alleviation of psoriasis pathology at 15 mg/kg, ip administered daily topically for 6 days; type: functional, organism-based; conditions: time 6.0 day
[15] = test system: Jurkat; assay: Downregulation of Ikaros level in human Jurkat cells at 30 nM measured after 4 hrs by DIA-Based Proteomic analysis; type: functional, cell-based
[16] = biological target: T1, Protein cereblon/Non-receptor tyrosine-protein kinase TYK2; assay: PROTAC activity at CRBN/TYK2 in human Jurkat cells assessed as induction of degradation of TYK2 at 10 nM measured after 10 hrs by Western blot analysis relative to control; type: cell-based
Target sequence in this assay (P29597 whole entry, looked up): as the sequence (P29597 whole entry, looked up) above
Target sequence in this assay (Q96SW2 whole entry, looked up): as the sequence (Q96SW2 whole entry, looked up) above

[17] = biological target: T2, Tyrosine-protein kinase JAK3 (Homo sapiens, UniProt P52333); assay: Binding affinity to JAK3 (unknown origin) by ADP-glo kinase assay
T2 sequence (P52333 whole entry): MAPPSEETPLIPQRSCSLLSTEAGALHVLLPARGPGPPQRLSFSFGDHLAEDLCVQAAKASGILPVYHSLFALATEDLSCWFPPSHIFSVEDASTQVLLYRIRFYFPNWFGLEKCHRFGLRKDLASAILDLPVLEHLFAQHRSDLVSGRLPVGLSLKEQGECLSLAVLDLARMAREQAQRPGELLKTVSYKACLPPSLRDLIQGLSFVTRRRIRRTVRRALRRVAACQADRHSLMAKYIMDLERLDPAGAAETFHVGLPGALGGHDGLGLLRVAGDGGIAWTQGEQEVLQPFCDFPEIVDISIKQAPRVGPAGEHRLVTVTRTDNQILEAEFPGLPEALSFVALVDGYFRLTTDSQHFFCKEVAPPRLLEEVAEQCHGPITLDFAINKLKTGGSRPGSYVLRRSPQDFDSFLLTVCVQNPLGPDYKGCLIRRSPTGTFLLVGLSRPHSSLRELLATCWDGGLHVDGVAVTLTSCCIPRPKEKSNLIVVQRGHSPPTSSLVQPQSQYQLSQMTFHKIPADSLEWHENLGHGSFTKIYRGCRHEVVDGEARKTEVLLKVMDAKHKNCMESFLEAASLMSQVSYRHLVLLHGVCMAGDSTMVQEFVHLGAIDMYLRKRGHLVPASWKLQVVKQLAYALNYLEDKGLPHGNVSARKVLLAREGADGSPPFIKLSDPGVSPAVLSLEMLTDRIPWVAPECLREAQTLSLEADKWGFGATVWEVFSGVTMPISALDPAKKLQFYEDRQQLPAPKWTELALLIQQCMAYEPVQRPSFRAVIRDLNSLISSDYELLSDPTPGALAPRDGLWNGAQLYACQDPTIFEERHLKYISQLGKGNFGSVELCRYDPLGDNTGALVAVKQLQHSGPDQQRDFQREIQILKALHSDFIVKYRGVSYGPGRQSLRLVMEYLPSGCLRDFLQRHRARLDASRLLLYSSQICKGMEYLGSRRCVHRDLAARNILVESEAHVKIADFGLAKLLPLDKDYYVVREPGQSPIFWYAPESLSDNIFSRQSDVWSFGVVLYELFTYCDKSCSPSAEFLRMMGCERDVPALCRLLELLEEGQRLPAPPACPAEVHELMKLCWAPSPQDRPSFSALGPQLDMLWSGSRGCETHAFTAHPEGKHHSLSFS

[18] = Selectivity ratio of IC50 for displacement of fluorophore-labeled probe from JAK2 JH2 domain (unknown origin) to IC50 for displacement of fluorophore-labeled probe from TYK2 JH2 domain (unknown origin)
[19] = organism: Mus musculus; assay: Anti-inflammatory activity in imiquimod-induced female BALB/c mouse psoriasis model assessed as reduction in IL-23 expression in skin by ELISA method; type: functional, organism-based
[20] = Cmax in male ICR mouse at 5 mg/kg, ip measured up to 24 hrs by LC-MS/MS analysis; type: ADME, organism-based; conditions: in vivo
[21] = test system: Jurkat; assay: Downregulation of JAK1 protein level in human Jurkat cells at 1 to 100 nM measured after 10 hrs by Western blot analysis; type: functional, cell-based; conditions: dose 1-100 nM
[22] = test system: Jurkat; assay: Downregulation of TYK2 protein level in human Jurkat cells at 1 to 100 nM measured after 10 hrs by Western blot analysis; type: functional, cell-based; conditions: dose 1-100 nM
[23] = Inhibition of TYK2 dependent STAT3 phosphorylation in IL-6 stimulated human PBMC cells preincubated for 60 mins followed by IL-6 stimulation and measured after 60 mins by FACS assay; type: cell-based
[24] = biological target: T1, Protein cereblon/Non-receptor tyrosine-protein kinase TYK2; assay: PROTAC activity at CRBN/TYK2 in human Jurkat cells assessed as induction of degradation of TYK2 at 100 nM measured after 10 hrs by Western blot analysis relative to control; type: cell-based
Target sequence in this assay (P29597 whole entry, looked up): as the sequence (P29597 whole entry, looked up) above
Target sequence in this assay (Q96SW2 whole entry, looked up): as the sequence (Q96SW2 whole entry, looked up) above

[25] = MRT (0 to t) in male ICR mouse at 5 mg/kg, ip measured up to 24 hrs by LC-MS/MS analysis; type: ADME, organism-based; conditions: in vivo

Activity [1]: Active | IC50 [3]: 8.6 nM | IC50 [6]: 6.7 nM | CLint scaled [8]: 54 mL/min/kg | DC50 [9]: 0.42 nM | Activity [16]: 96% | IC50 [17]: > 10000 nM | Ratio IC50 [18]: > 80 | Cmax [20]: 1300 ng/mL | IC50 [23]: > 10000 nM | Activity [24]: 90% | MRT last at 24 h [25]: 4.1 h
Structure (SMILES): CNC(=O)c1cnc(Nc2ccc(C(=O)NC3CCC(Nc4ccc5c(c4)C(=O)N(C4CCC(=O)NC4=O)C5=O)CC3)cn2)cc1Nc1cccc(-c2ncc(F)cn2)c1OC (stereo not given)
Activity [2]: Active | Activity [4]: Active | Activity [5]: Active | Activity [7]: Active | Activity [10]: Active | Activity [11]: Active | Activity [12]: Active | Activity [13]: Active | Activity [14]: Active | Activity [15]: inactive | Activity [19]: Active | Activity [21]: Active | Activity [22]: Active
